Values quoted from earlier work in patent publication US20240216476A1, “COMBINATION OF BITTER RECEPTOR AGONIST AND GUT-SIGNALING COMPOUND” (AARDVARK THERAPEUTICS, INC., priority 2021, published 2024).
Like-named read-outs stand apart in the source and are kept apart here. Marks after values point to notes of the source that are not given here.

Legend:
[1] = cited from earlier work; for Effect on Body Weight (placebo-adjusted change from baseline) / Effect on HbA1c (placebo-adjusted change from baseline): QD 24-26 weeks
ob/ob mice = details: alogliptin 42.2 mg/kg/day 28 days, cited from earlier work
[2] = test system: C57Bl/6J mice fed with high-fat diet; details: alogliptin 0.03% (wt/wt) in diet for life span, cited from earlier work
NASH in vivo models = details: cited from earlier work
[3] = cited from earlier work
[4] = semaglutide 3 mg, sitagliptin 100 mg, saxagliptin 2.5 mg, vildagliptin 50 mg, alogliptin 12.5 mg, linagliptin 5 mg
[5] = semaglutide 7 mg, sitagliptin 200 mg, saxagliptin 5 mg, vildagliptin 100 mg, alogliptin 25 mg
[6] = sitagliptin 0.0018% in diet 12 weeks
[7] = sitagliptin 0.004% in diet 12 weeks, vildagliptin 30 mg/kg/day 7 weeks
[8] = vildagliptin 30 mg/kg/day 7 weeks
[9] = C57BL/6 male mice fed MCD diet for 4 weeks, 5 mg/kg/day PO for the last 2 weeks
[10] = Male DIAMOND mice fed WDSW for 24 weeks, 30 mg/kg/day PO QD for the last 8 weeks
[11] = Male C57BL/6J mice fed AMLN diet for 50 weeks, 30 mg/kg, PO, QD for 8 weeks
[12] = Male C57BL/6J mice fed high fat diet for 20 weeks, 0.3 mg/kg/day PO for 20 weeks
[13] = C57Bl6/J mice fed MCD diet for 3 weeks, 10 or 30 mg/kg, PO, QD for 3 weeks
[14] = C57BL/6 mice on 60% high fat diet for 36 weeks, 0.3-3 mg/kg/day PO for 24 days
[15] = Male C57BL/6 mice fed CDAHFD diet for 20 weeks, 3 mg/kg PO for 12 weeks
[16] = Male C57BL/6 mice fed fast food diet for 330 days, treatment started after 240 days, dose unknown
[17] = mouse model of diet-induced NASH, 10 mg/kg/day PO for eight weeks
[18] = mouse model of diet-induced NASH, 10 mg/kg/day PO for eight weeks, significantly

Cn1c(=O)cc(N2CCC[C@@H](N)C2)n(Cc2ccccc2C#N)c1=O [Alogliptin]
HDL (mg/dL) ([1]; alogliptin 12.5 mg QD 26 weeks, placebo +1.3): HDL (mg/dL): +0.9 | LDL (mg/dL) ([1]; alogliptin 12.5 mg QD 26 weeks, placebo +4.6): LDL (mg/dL): −0.5 | TC (mg/dL) ([1]; alogliptin 12.5 mg QD 26 weeks, placebo +10.1): TC (mg/dL): −1.2 | TG (mg/dL) ([1]; alogliptin 12.5 mg QD 26 weeks, placebo +26.5): TG (mg/dL): −5.8 | Effect on Body Weight (placebo-adjusted change from baseline) [1, 4]: 12.5 mg: −0.27 kg | Effect on HbA1c (placebo-adjusted change from baseline) [1, 4]: 12.5 mg: −0.54% | Effect on Body Weight (placebo-adjusted change from baseline) [1, 5]: 25 mg: −0.4 kg | Effect on HbA1c (placebo-adjusted change from baseline) [1, 5]: 25 mg: −0.57% | Control-adjusted Percent Change in HbA1c Level (ob/ob mice): −13%** | Control-adjusted Percent Change in Fasting Blood Glucose (ob/ob mice; [6]): −15.6% | Control-adjusted Percent Change in Insulin Level (ob/ob mice; [6]): +105%* * | Control-adjusted Percent Change in TG Level (ob/ob mice; [6]): −24.5% | Control-adjusted Percent Change in HbA1c Level [2]: −8.8% | Control-adjusted Percent Change in Lipid Levels: LDL [2]: −16.4% in LDL | Control-adjusted Percent Change in Body Weight Gain [2, 7]: −32.6%* | Control-adjusted Percent Change in Fasting Blood Glucose [2, 7]: −10.1% | Control-adjusted Percent Change in Insulin Level [2, 7]: -47.9%* | Control-adjusted Percent Change in Lipid Levels: TC [2, 8]: −1.1% in TC | Control-adjusted Percent Change in Lipid Levels: TG [2, 8]: −19.2% in TG*

CCCCCCCCCCCCCCCCCCCC(=O)N[C@H]1CC[C@@]2(C)[C@@H](C1)C[C@@H](O)[C@@H]1[C@@H]2C[C@H](O)[C@]2(C)[C@@H]([C@H](C)CCC(=O)O)CC[C@@H]12.CNC[C@H](O)[C@@H](O)[C@H](O)[C@H](O)CO [Aramchol]
ALT, AST, or TG (NASH in vivo models; [9]): No effects on ALT, | features of steatohepatitis and fibrosis (NASH in vivo models; [9]): Reduced features of | protein expression of COL1A1 in the liver (NASH in vivo models; [9]): decreased protein

COc1cccc(C(=O)COc2ccc(CC3SC(=O)[N-]C3=O)cc2)c1.[K+] (stereo not drawn) [Azemiglitazone (MSDC 0602K)]
NASH CRN fibrosis score (NASH in vivo models; [10]): treated group was 0. | ballooning (NASH in vivo models; [10]): significantly decreased | mice progressed from simple steatosis to NASH compared to the control group (NASH in vivo models; [10]): Significantly fewer | serum levels of fasting insulin, and AST and ALT (NASH in vivo models; [10]): dramatically reduced | steatosis-activity-fibrosis (SAF) score (NASH in vivo models; Male DIAMOND mice fed WDSW for 24 weeks, 30 mg/kg/day PO QD for the last 8 weeks, significantly, reduced to the level of baseline controls): lower in the MSDC-

CCCCOCCOc1ccc(-c2ccc3c(c2)/C=C(/C(=O)Nc2ccc([S@@+]([O-])Cc4cncn4CCC)cc2)CCCN3CC(C)C)cc1 [Cenicriviroc]
intrahepatic accumulation of inflammatory macrophages (NASH in vivo models; Male C57BL/6N mice fed CDAHFD, IP, 30 mg/kg/day for 4 or 14 weeks): Inhibited intrahepatic | frequency of intrahepatic anti-inflammatory macrophages (NASH in vivo models; Male C57BL/6N mice fed CDAHFD, IP, 30 mg/kg/day for 14 weeks): weeks, and increased | fibrosis on histopathology (NASH in vivo models; Male C57BL/6N mice fed CDAHFD, IP, only with 30 mg/kg/day for 14 weeks): Significantly improved

CC[C@H]1[C@@H](O)[C@@H]2[C@H](CC[C@]3(C)[C@@H]([C@H](C)CCNC(=O)NS(=O)(=O)c4ccc(C(C)(C)C)cc4)CC[C@@H]23)[C@@]2(C)CC[C@@H](O)C[C@@H]12 [EDP-305]
fibrogenic gene expression (NASH in vivo models; Male C57BL/6 mice fed CDAHFD diet for 12 weeks, high dose (30 mg/kg daily PO) from week 6, significant): decreased fibrogenic | fibrosis progression on histopathology (NASH in vivo models; Male C57BL/6 mice fed CDAHFD diet for 12 weeks, high-dose 30 mg/kg daily PO from beginning of week 6): halted fibrosis

CSc1ccc(C(=O)/C=C/c2cc(C)c(OC(C)(C)C(=O)O)c(C)c2)cc1 [Elafibranor (GFT505)]
histopathological scores of hepatic steatosis and inflammation, as well as fibrosis severity (NASH in vivo models; [11]): Significantly reduced | liver TG, total cholesterol contents, or plasma levels of ALT, AST, TG or total cholesterol (NASH in vivo models; [11]): No effects on liver TG,

C[C@H](NC(=O)C(=O)Nc1ccccc1C(C)(C)C)C(=O)N[C@@H](CC(=O)O)C(=O)COc1c(F)c(F)cc(F)c1F [Emricasan]
inflammation, ballooning, and fibrosis on histopathology (NASH in vivo models; [12]): Improved | serum levels of glucose, HOMA-IR, cholesterol, ALT, and AST (NASH in vivo models; [12]): Decreased serum levels

O=C(O)CCCc1cc2cc(Cl)ccc2n1S(=O)(=O)c1ccc2ncsc2c1 [Lanifibranor (IVA337)]
induction of profibrotic and fibrotic genes (NASH in vivo models; [13]): inhibited the induction | plasma alanine aminotransferase levels (NASH in vivo models; [13]): significantly reduced | steatosis and inflammation on histopathology (NASH in vivo models; [13]): IVA337 prevented

CCCCCCCCCCCCCCCC(=O)N[C@@H](CCC(=O)NCCCC[C@H](NC(=O)[C@H](C)NC(=O)[C@H](C)NC(=O)[C@H](CCC(N)=O)NC(=O)CNC(=O)[C@H](CCC(=O)O)NC(=O)[C@H](CC(C)C)NC(=O)[C@H](Cc1ccc(O)cc1)NC(=O)[C@H](CO)NC(=O)[C@H](CO)NC(=O)[C@@H](NC(=O)[C@H](CC(=O)O)NC(=O)[C@H](CO)NC(=O)[C@@H](NC(=O)[C@H](Cc1ccccc1)NC(=O)[C@@H](NC(=O)CNC(=O)[C@H](CCC(=O)O)NC(=O)[C@H](C)NC(=O)[C@@H](N)Cc1cnc[nH]1)[C@@H](C)O)[C@@H](C)O)C(C)C)C(=O)N[C@@H](CCC(=O)O)C(=O)N[C@@H](Cc1ccccc1)C(=O)N[C@H](C(=O)N[C@@H](C)C(=O)N[C@@H](Cc1c[nH]c2ccccc12)C(=O)N[C@@H](CC(C)C)C(=O)N[C@H](C(=O)N[C@@H](CCCNC(=N)N)C(=O)NCC(=O)N[C@@H](CCCNC(=N)N)C(=O)NCC(=O)O)C(C)C)[C@@H](C)CC)C(=O)O [Liraglutide]
Incidence of Hypoglycemic Episodes for Combination with Metformin (vs. Placebo) ([3]; prescribing information): 3.6% | Incidence of Hypoglycemic Episodes for Combination with a Sulfonylurea (vs. Placebo) ([3]; prescribing information, lixisenatide: add-on to a sulfonylurea with or without metformin): 7.5%

CC[C@H]1[C@@H](O)[C@@H]2[C@H](CC[C@]3(C)[C@@H]([C@H](C)CCC(=O)O)CC[C@@H]23)[C@@]2(C)CC[C@@H](O)C[C@@H]12 [Obeticholic acid (INT-747)]
histopathological scores of hepatic steatosis and inflammation (NASH in vivo models; [11]): Significantly reduced | liver weight (NASH in vivo models; [11]): Significantly reduced | total liver TG and total cholesterol, collagen 1a1, and galectin-3 content (NASH in vivo models; [11]): Significantly reduced | plasma total cholesterol (NASH in vivo models; Male C57BL/6J mice fed AMLN diet for 50 weeks, 30 mg/kg, PO, QD for 8 weeks, significant): reduced plasma total

CC(C)c1cc(Oc2c(Cl)cc(-n3nc(C#N)c(=O)[nH]c3=O)cc2Cl)n[nH]c1=O [Resmetirom (MGL-3196)]
insulin sensitivity (NASH in vivo models; [14]): Improved insulin | reduction of serum ALT (NASH in vivo models; [14]): (46%), free fatty acids | reduction of serum cholesterol (NASH in vivo models; [14]): (67%). | reduction of serum free fatty acids (NASH in vivo models; [14]): (30%), and cholesterol | steatosis, fibrosis or inflammation in treated livers (NASH in vivo models; [14]): No detectable

CCO[C@@H](Cc1ccc(OCCn2c(C)ccc2-c2ccc(SC)cc2)cc1)C(=O)O [Saroglitazar]
hepatic steatosis (NASH in vivo models; [15]): induced reversal of | liver TNFα levels and hepatic fibrogenic and inflammatory gene expression (NASH in vivo models; [15]): reduced liver TNFα | reduction of serum ALT (NASH in vivo models; [15]): including ALT (60%), | reduction of serum AST (NASH in vivo models; [15]): AST (43%), and MCP1 | reduction of serum MCP1 (NASH in vivo models; [15]): (45%). Liver lipid (TG) | vacuolation and ballooning (NASH in vivo models; [15]): reduced or no

Cc1cc(F)c(C(=O)Nc2cccc(-c3nncn3C(C)C)n2)cc1-n1cnc(C2CC2)c1 [Selonsertib (GS-4997)]
liver steatosis, fibrosis, and insulin resistance (NASH in vivo models; [16]): Significantly reduced | reduction of liver cholesterol (NASH in vivo models; [16]): 45% | reduction of serum bile acid cholate (NASH in vivo models; [16]): cholate (91% reduction) | reduction of serum cholesterol (NASH in vivo models; [16]): 14%

O=C(O)c1cc(F)c2nc(N3[C@@H]4CC[C@H]3C[C@@H](OCc3c(-c5ccccc5OC(F)(F)F)noc3C3CC3)C4)sc2c1 [Tropifexor]
inflammation, steatosis, and fibrosis (NASH in vivo models; AMLN model (C57BL/6J mice on AMLN diet for 30 weeks), 0.03-0.9 mg/kg for the last 4 weeks): tropifexor reduced | mRNA levels of fibrogenic markers and hepatic inflammation cell populations (NASH in vivo models; AMLN model (C57BL/6J mice), 0.03-0.9 mg/kg for the last 4 weeks): dramatically reduced | ALT/AST levels relative to controls (NASH in vivo models; AMLN model (C57BL/6J mice), 0.03-0.9 mg/kg for the last 4 weeks, dose-dependent): reduction in ALT/AST

Cc1cc(OCP2(=O)OCC[C@@H](c3cccc(Cl)c3)O2)cc(C)c1Cc1ccc(O)c(C(C)C)c1 (stereo partly drawn) [VK2809]
NAS score, mean improvement (NASH in vivo models; [17]): (a 40% mean | all subcomponents of NAS (inflammation, ballooning, and steatosis) (NASH in vivo models; [17]): Improvements in all | liver contents of triglyceride, cholesterol, collagen, and hydroxyproline (NASH in vivo models; [18]): improved liver contents | liver fibrosis on histopathology (NASH in vivo models; [18]): improved NAS score | plasma triglycerides and cholesterol (NASH in vivo models; [18]): reduced plasma

Lixisenatide
Incidence of Hypoglycemic Episodes for Combination with Insulin (vs. Placebo) ([3]; in vivo): 28%* | Incidence of Hypoglycemic Episodes for Combination with Metformin (vs. Placebo) ([3]; in vivo): 3% | Incidence of Hypoglycemic Episodes for Combination with a Sulfonylurea (vs. Placebo) ([3]; in vivo): 15%** | Incidence of Hypoglycemic Episodes for Monotherapy at the Highest Dose (vs. Placebo) ([3]; in vivo): 2%
